For data set [1] the following is noted: cited from earlier work.
The subject of data set [2] is CYP3A. Conditions: both, human, plasma, po, 2 mg, probe midazolam.
For data set [3] the following is noted: PBPK model; cited from earlier work.
The subject of data set [4] is CYP3A. More on the design: species or system human. Conditions: refined to recover observed midazolam AUCR; 1/18 of the in vitro k inact.
The nature of data set [5]: Clinical DDI study in healthy adults. It is filed as in vivo, human. Conditions: for AUC(0-t) / Cmax: both, human, plasma, oral.
Another data set relates to infants with Type 1 SMA. Conditions: cited from earlier work.

Here are results for two molecules from publication PMC9291816 (Clinical Pharmacology and Therapeutics, 2021).

Turning to `Cc1ncc2n1-c1ccc(Cl)cc1C(c1ccccc1F)=NC2` [midazolam], the “UGT1A4 contribution to clearance” value in data set [1] (adults) is 1–2%. The “FG (intestinal availability)” value in data set [1] was 0.55. In the data set on CYP3A [2], this molecule registered an area under the curve AUC(0-t) of 19.9 ng·h/mL and a Cmax of 7.65 ng/mL.

For `Cc1cn2nc(-c3cc(=O)n4cc(N5CCNC6(CC6)C5)ccc4n3)cc(C)c2n1` [risdiplam, Risdiplam], in data set [3], the “hepatic intrinsic CL via CYP3A share of clearance” value was 20%, the “hepatic intrinsic CL via FMO3 share of clearance” value was 75% and the “renal CL (CLR) share of clearance” value is on record as 5%. Also, the “in vivo k inact” value with CYP3A [4] is listed as “in vivo k inact ^e = 0.22/hour”. In addition, the tolerability result in data set [5] (14 days, alone and coadministered with midazolam, healthy adults) was “well tolerated”. In data set [5] (5 mg), this molecule returned an AUC(0-t) of 1250 ng·h/mL and a Cmax of 78.6 ng/mL. In addition, in data set [5] (8 mg), the AUC(0-t) amounted to 1730 ng·h/mL and the highest level (Cmax) was 113 ng/mL. In the data set on infants with Type 1 SMA, the “increase in the SMN protein” value was “approximately twofold”.

As a reminder, the AUC(0-t) is the area under the concentration-time curve up to a stated or last time point. Read a low AUC(0-t) as less exposure. Usually Cmax stands for the highest concentration seen after dosing.
